Data published in patent US11147272B2, “Pyridone compounds and agricultural and horticultural fungicides comprising the same as active ingredients” (MITSUI CHEMICALS AGRO, INC., priority 2017, dated 2021).

Legend:
Magnaporthe grisea = assay: whole plant or invertebrate; assay type: in vivo; settings: Blast on rice; control value class
Alternaia brassicicola = assay: Test Example C: Alternaria sooty spot on cabbage; assay type: in vivo; settings: Alternaria sooty spot on cabbage; control value class
Excerpt: Seeds of a test plant (cabbage variety: Shikidori) were planted and cultivated until the cotyledons extended.
<Control Value> Control value=100{1−(n/3)}

Puccinia recondita = assay: Test Example E: Brown rust on wheat; assay type: in vivo; settings: Brown rust on wheat; control value class
Phytophthora infestans = assay: whole plant or invertebrate; assay type: in vivo; settings: Late blight on tomato; control value class
Botrytis cinerea = assay: Test Example B: Gray mold on tomato; settings: Gray mold on tomato; control value class
Plasmopara viticola = assay: Test Example G: Downy mildew on vine; settings: Downy mildew on vine; 250 ppm spray, 7 to 10 days after inoculation
[1] = tested on: Colletotrichum orbiculare; assay: Test Example H: Anthracnose on cucumber; settings: Anthracnose on cucumber; 250 ppm spray, 6 to 10 days after inoculation
[2] = tested on: Blumeria graminis f. sp. hordei; assay: Test Example D: Powdery mildew on barley; settings: Powdery mildew on barley; control value class

Row | SMILES | Test A control value (Magnaporthe grisea) | Test C control value (Alternaia brassicicola) | Test E control value (Puccinia recondita) | Test F control value (Phytophthora infestans) | Test B control value (Botrytis cinerea) | Test G control value (Plasmopara viticola) | Test H control value [1] | Test D control value [2]
1 | CCc1cc(Br)c(=O)n(CC)c1-c1ccc(OC)cc1C [compound 356] | H (more than 50% control value) | H (more than 50% control value) | H (more than 50% control value) | L (50% or less control value) | H (more than 50% control value) | L (50% or less control value) | H (more than 50% control value) | H (more than 50% control value)
2 | CCc1cc(Cl)c(=O)n(C)c1-c1ccc(OC)cc1Br [compound 357] | H (more than 50% control value) | L (50% or less control value) | H (more than 50% control value) | L (50% or less control value) | H (more than 50% control value) | L (50% or less control value) | H (more than 50% control value) | L (50% or less control value)
3 | CCc1cc(Br)c(=O)n(C)c1-c1ccc(OC)cc1Br [compound 358] | L (50% or less control value) | L (50% or less control value) | H (more than 50% control value) | L (50% or less control value) | H (more than 50% control value) | L (50% or less control value) | L (50% or less control value) | H (more than 50% control value)
4 | CCCC1=C(c2ccc(F)cc2Br)N(CC)C(=O)CC1 [compound 359] | L (50% or less control value) | L (50% or less control value) | L (50% or less control value) | L (50% or less control value) | L (50% or less control value) | L (50% or less control value) | L (50% or less control value) | H (more than 50% control value)
5 | CCc1ccc(=O)n(C)c1-c1ccc(F)cc1C [compound 360] | L (50% or less control value) | L (50% or less control value) | L (50% or less control value) | H (more than 50% control value) | L (50% or less control value) | L (50% or less control value) | L (50% or less control value) | L (50% or less control value)
6 | CCCc1ccc(=O)n(CC)c1-c1ccc(F)cc1Br [compound 361] | H (more than 50% control value) | L (50% or less control value) | H (more than 50% control value) | L (50% or less control value) | H (more than 50% control value) | L (50% or less control value) | L (50% or less control value) | H (more than 50% control value)
7 | CCc1cc(Cl)c(=O)n(C)c1-c1ccc(F)cc1C [compound 362] | H (more than 50% control value) | L (50% or less control value) | H (more than 50% control value) | L (50% or less control value) | H (more than 50% control value) | L (50% or less control value) | L (50% or less control value) | H (more than 50% control value)
8 | CCc1cc(Br)c(=O)n(C)c1-c1ccc(F)cc1C [compound 363] | H (more than 50% control value) | L (50% or less control value) | H (more than 50% control value) | L (50% or less control value) | H (more than 50% control value) | H (more than 50% control value) | L (50% or less control value) | L (50% or less control value)
9 | CCn1c(-c2c(F)cc(F)cc2F)c(C=O)cc(Br)c1=O [compound 364] | L (50% or less control value) | H (more than 50% control value) | H (more than 50% control value) | L (50% or less control value) | H (more than 50% control value) | H (more than 50% control value) | L (50% or less control value) | L (50% or less control value)
10 | CCn1c(-c2c(F)cc(F)cc2F)c(C(O)C(C)C)cc(Br)c1=O (stereo not shown) [compound 365] | H (more than 50% control value) | H (more than 50% control value) | H (more than 50% control value) | L (50% or less control value) | H (more than 50% control value) | H (more than 50% control value) | H (more than 50% control value) | H (more than 50% control value)
11 | CCn1c(-c2c(F)cc(F)cc2F)c(C(=O)C(C)C)cc(Br)c1=O [compound 366] | H (more than 50% control value) | H (more than 50% control value) | H (more than 50% control value) | L (50% or less control value) | H (more than 50% control value) | H (more than 50% control value) | H (more than 50% control value) | H (more than 50% control value)
12 | CCc1ccc(=O)n(C)c1-c1ccc(OC)cc1C [compound 367] | L (50% or less control value) | L (50% or less control value) | L (50% or less control value) | L (50% or less control value) | L (50% or less control value) | L (50% or less control value) | H (more than 50% control value) | H (more than 50% control value)
13 | CCCc1cc(Cl)c(=O)n(CC)c1-c1ccc(F)cc1Br [compound 368] | H (more than 50% control value) | H (more than 50% control value) | H (more than 50% control value) | H (more than 50% control value) | H (more than 50% control value) | H (more than 50% control value) | H (more than 50% control value) | H (more than 50% control value)
14 | CCCc1cc(Br)c(=O)n(CC)c1-c1ccc(F)cc1Br [compound 369] | H (more than 50% control value) | H (more than 50% control value) | H (more than 50% control value) | H (more than 50% control value) | H (more than 50% control value) | H (more than 50% control value) | H (more than 50% control value) | H (more than 50% control value)
15 | CCCc1ccc(=O)n(CC)c1-c1ccc(OC)cc1Br [compound 370] | L (50% or less control value) | H (more than 50% control value) | H (more than 50% control value) | H (more than 50% control value) | H (more than 50% control value) | H (more than 50% control value) | H (more than 50% control value) | H (more than 50% control value)
16 | CCCC1=C(c2c(F)cc(F)cc2F)N(CC)C(=O)CC1 [compound 371] | L (50% or less control value) | L (50% or less control value) | L (50% or less control value) | L (50% or less control value) | H (more than 50% control value) | L (50% or less control value) | L (50% or less control value) | L (50% or less control value)
17 | CCCc1ccc(=O)n(CC)c1-c1c(F)cc(F)cc1F [compound 372] | L (50% or less control value) | H (more than 50% control value) | H (more than 50% control value) | L (50% or less control value) | H (more than 50% control value) | H (more than 50% control value) | H (more than 50% control value) | H (more than 50% control value)
